# Entries after “also recorded” stand apart in the source; their conditions may differ.
# Legend:
# [1] = tested on: Kpn.2478 (KPC-2, TEM+, clinical); assay: Standard BLI potentiation MIC assay; format: cell-based; settings: Klebsiella pneumoniae, read-out: MIC of β-lactam with BLI
# Description: (§1) The experimental protocol was performed according to Clinical and Laboratory Standards Institute (CLSI) guidelines with modifications as described below (CLSI guidelines can be derived from the CLSI document M07-A9 published in January 2012: “Methods for Dilution Antimicrobial Susceptibility Tests for Bacteria That Grow Aerobically; Approved Standard-Ninth Edition”).
# (§2) To prepare for MIC testing, frozen glycerol stocks of clinical isolates (Klebsiella pneumoniae, Eschericia coli, Enterobacter spp, Citrobacter spp, or Pseudomonas aeruginosa) were used to streak for isolated colonies on rich, non-selective, tryptic soy agar containing 5% sheep's blood (TSAB). Frozen glycerol stocks of laboratory engineered, isogenic E. coli strains, which contain cloned β-lactamase expressing plasmids were used to streak for isolated colonies on rich, selective LB agar supplemented with 25 μg/mL tetracycline to maintain the plasmid. All strains were incubated at 37° C. for 18-24 hrs.
# (§3) On the day of testing, primary cultures were started by scraping off 5-10 colonies from the TSAB plates containing clinical strains or the tetracycline supplemented LB plates containing engineered strains. The clinical strain material was suspended in ˜5 mL of cation adjusted Mueller Hinton Broth (CAMHB) in 14 mL culture tubes. The engineered strain material was suspended in CAMHB (supplemented with 25 μg/mL tetracycline) in 14 mL culture tubes. All strains were incubated at 37° C. with aeration (200 rpm) for ˜2 hrs until the optical density at 600 nm (OD600) was ≧0.1.
# (§4) The two compound components of the assay were each diluted in CAMHB and added to the 96-well broth microdilution assay plates. 50 μL of the β-lactam was added to each well of the assay plate in 2-fold dilutions with final concentrations ranging from 128 to 0.13 μg/mL. 25 μL of the BLI compound was added to all wells in the broth microdilution plates at a final concentration of 4 μg/mL. Inoculum cultures were prepared by standardizing the primary cultures to OD600=0.1 and then adding 20 μL of the adjusted primary culture per 1 mL CAMHB for clinical strains or CAMHB (supplemented with tetracycline at 100 μg/mL) for engineered strains, so that the final inoculum density was ˜10^5 colony forming units per milliliter. Diluted inoculum cultures were used to inoculate 25 μL per well in 96-well broth microdilution assay plates. The final volume of each well was 100 μL and contained a β-lactam at different concentrations, a BLlcompound at 4 μg/mL concentration, the bacterial culture at an OD600 of approximately 0.001 and when necessary tetracycline at 25 μg/mL.
# (§5) Plates were incubated for 18-20 hours at 37° C. with aeration (200 rpm). Following incubation, growth was confirmed visually placing plates over a viewing apparatus (stand with a mirror underneath) and then OD600 was measured using a SpectraMax 340PC384 plate reader (Molecular Devices, Sunnyvale, Calif.). Growth was defined as turbidity that could be detected with the naked eye or achieving minimum OD600 of 0.1. MIC values were defined as the lowest concentration producing no visible turbidity.
# [2] = tested on: Kpn.2913 (KPC-2, SHV+, clinical); assay: Standard BLI potentiation MIC assay; format: cell-based; settings: Klebsiella pneumoniae, read-out: MIC of β-lactam with BLI
# Description: as §1, §2, §3, §4, §5
# [3] = tested on: Pae.2863 (AmpC de-repress, clinical); assay: Standard BLI potentiation MIC assay; format: cell-based; settings: Pseudomonas aeruginosa, read-out: MIC of β-lactam with BLI
# Description: as §1, §2, §3, §4, §5
# [4] = tested on: Pae.2885 (AmpC, clinical); assay: Standard BLI potentiation MIC assay; format: cell-based; settings: Pseudomonas aeruginosa, read-out: MIC of β-lactam with BLI
# Description: as §1, §2, §3, §4, §5
# [5] = tested on: Pae.2757 (AmpC over-expn, clinical); assay: Standard BLI potentiation MIC assay; format: cell-based; settings: Pseudomonas aeruginosa, read-out: MIC of β-lactam with BLI
# Description: as §1, §2, §3, §4, §5
# [6] = tested on: Kpn.2909 (KPC-3, SHV+, TEM+, clinical); assay: Standard BLI potentiation MIC assay; format: cell-based; settings: Klebsiella pneumoniae, read-out: MIC of β-lactam with BLI
# Description: as §1, §2, §3, §4, §5
# [7] = tested on: Kpn.571 (TEM-26, clinical); assay: Standard BLI potentiation MIC assay; format: cell-based; settings: Klebsiella pneumoniae, read-out: MIC of β-lactam with BLI
# Description: as §1, §2, §3, §4, §5
# [8] = tested on: Kpn.2926 (CTX-M-15, OXA-48, clinical); assay: Standard BLI potentiation MIC assay; format: cell-based; settings: Klebsiella pneumoniae, read-out: MIC of β-lactam with BLI
# Description: as §1, §2, §3, §4, §5
# [9] = tested on: Kpn.2490 (KPC-3, SHV+, TEM+, clinical); assay: Standard BLI potentiation MIC assay; format: cell-based; settings: Klebsiella pneumoniae, read-out: MIC of β-lactam with BLI
# Description: as §1, §2, §3, §4, §5
# [10] = tested on: Kpn.2914 (KPC-2, SHV+, clinical); assay: Standard BLI potentiation MIC assay; format: cell-based; settings: Klebsiella pneumoniae, read-out: MIC of β-lactam with BLI
# Description: as §1, §2, §3, §4, §5
# [11] = tested on: Pae.2808 (KPC-2, clinical); assay: Standard BLI potentiation MIC assay; format: cell-based; settings: Pseudomonas aeruginosa, read-out: MIC of β-lactam with BLI
# Description: as §1, §2, §3, §4, §5
# [12] = tested on: Kpn.2783 (CTX-M-15, SHV+, TEM+, clinical); assay: Standard BLI potentiation MIC assay; format: cell-based; settings: Klebsiella pneumoniae, read-out: MIC of β-lactam with BLI
# Description: as §1, §2, §3, §4, §5
# [13] = tested on: Kpn.2917 (KPC-2, SHV+, clinical); assay: Standard BLI potentiation MIC assay; format: cell-based; settings: Klebsiella pneumoniae, read-out: MIC of β-lactam with BLI
# Description: as §1, §2, §3, §4, §5
# [14] = tested on: Kpn.2918 (KPC-3, SHV+, TEM+, clinical); assay: Standard BLI potentiation MIC assay; format: cell-based; settings: Klebsiella pneumoniae, read-out: MIC of β-lactam with BLI
# Description: as §1, §2, §3, §4, §5
# [15] = Gravimetric vapour sorption (GVS/DVS), hygroscopicity; format: physicochemical; settings: DVS, 25° C., 0-90% RH; sulfate
# Description: Sorption isotherms were obtained using a SMS DVS Intrinsic moisture sorption analyser, controlled by DVS Intrinsic Control software v1.0.1.2 (or v 1.0.1.3). The sample temperature was maintained at 25° C. by the instrument controls. The humidity was controlled by mixing streams of dry and wet nitrogen, with a total flow rate of 200 ml/min The relative humidity was measured by a calibrated Rotronic probe (dynamic range of 1.0-100% RH), located near the sample. The weight change, (mass relaxation) of the sample as a function of % RH was constantly monitored by the microbalance (accuracy ±0.005 mg).
# Typically 5-20 mg of sample was placed in a tared mesh stainless steel basket under ambient conditions. The sample was loaded and unloaded at 40% RH and 25° C. (typical room conditions). A moisture sorption isotherm was performed as outlined below (2 scans giving 1 complete cycle). The standard isotherm was performed at 25° C. at 10% RH intervals over a 0-90% RH range Data analysis was undertaken in Microsoft Excel using DVS Analysis Suite v6.2 (or 6.1 or 6.0).
# The sample was recovered after completion of the isotherm and re-analysed by XRPD.
# Cfr.568 (AmpC, clinical) = assay: Standard BLI potentiation MIC assay; format: cell-based, Citrobacter spp; settings: Citrobacter, read-out: MIC of β-lactam with BLI
# Description: as §1
# as §2, with “hrs. […]” for “hrs.”
# as §5, with “MIC values were defined as the lowest concentration producing no visible turbidity.” left out
compound,measurement,setting,value
"O=C1N2C[C@@H](CC[C@H]2c2nnco2)N1OS(=O)(=O)[O-].[Na+] [Hydrate 1, sodium (2S,5R)-2-(1,3,4-oxadiazol-2-yl)-7-oxo-1,6-diazabicyclo[3.2.1]octan-6-yl sulfate]",MIC,[1],4 to 8 µg/mL
same,MIC,[2],0.25 to 0.5 µg/mL
same,MIC,[3],1 to 2 µg/mL
same,MIC,[4],0.25 to 0.5 µg/mL
same,MIC,[5],1 to 2 µg/mL
same,MIC,[6],1 to 2 µg/mL
same,MIC,[7],0.25 to 0.5 µg/mL
same,MIC,[8],1 to 2 µg/mL
same,MIC,[9],0.25 to 0.5 µg/mL
same,MIC,[10],1 to 2 µg/mL
same,MIC,[11],4 to 8 µg/mL
same,MIC,[12],0.25 to 0.5 µg/mL
same,MIC,[13],0.25 to 0.5 µg/mL
same,MIC,[14],1 to 2 µg/mL
same,hygroscopicity relative to the amorphous form,[15],significantly less hygroscopic than the amorphous form; also recorded: low hygroscopicity relative to amorphous
same,MIC,"Cfr.568 (AmpC, clinical)",1 to 2 µg/mL

# — patent publication US9120795B2, “Crystalline form of a β-lactamase inhibitor” (Cubist Pharmaceuticals, Inc., priority 2013, dated 2015)
